Each structure is given as a SMILES string.

The values that follow come from PMC5594551, “Heterogeneous drug penetrance of veliparib and carboplatin measured in triple negative breast tumors” (Breast Cancer Research : BCR, 2017).

Data set [1] is described as follows: Carboplatin plasma PK in patients of phase 1 trial (three-compartment model). The class given is in vivo. The protocol: (§1) Carboplatin and platinum adducts were determined in a limited number of blood samples from a previously presented phase 1 clinical trial (NCT02358200). […] In the case of grade 3 or grade 4 toxicity, carboplatin and/or talazoparib doses were held until below grade 1 and resumed at a lower dose level. Blood samples were obtained from a limited number of patients during cycle 1 day 1 (prior to talazoparib dosing) and cycle 2 day 1 pre-dose and up to 24 h post dose, and PBMCs were derived at day 15 post dose, DNA was extracted as described in Additional file 1d and platinum adducts were quantified by ICP-MS (Additional file 1b).
A three-compartment model best described carboplatin in plasma and no variability between patients was observed (Additional file 1: Figure S12 and Table S2). In further analyses, we assumed that the carboplatin plasma PK profile in the other 16 patients was similar to that the first 3 patients: in these patients glomerular filtration rate (GFR) ranged from 60 to 151 mL/min and BSA values ranged from 1.58 to 2.0 m^2. […] [34].
(§2) Supplementary Table 2: PK patients estimates carboplatin and platinum adducts Structural model PK Estimat RS
(§3) Inter-individual variability on Platinum adduct formation (RPT) 317% proportional residual error plasma carboplatin 28% 26 […]
(§4) proportional residual error adduct formation 110% 6%
(§5) Platinum adduct formation:
(§6) CL=clearance, V=volume of distribution, KA= rate of absorption, RPT= ratio of carboplatin adduct formation, KPT= rate of carboplatin adduct formation, gBRCA = germline BRCA carrier […]
(§7) (also on this page, place not known: ( )adductsC−×× plasmaCRPT KPT=dt dCadducts)
(§8) (1 picture or pasted object on this page, not shown here)

Data set [2] deals with nuclear DNA. In words: Platinum adducts by ICP-MS in PBMCs from patients (carboplatin + talazoparib phase 1). The class given is in vivo. The procedure:
as §1
The platinum adduct formation in PBMCs in 19 patients was linked to carboplatin concentrations in plasma using the Eq 1. […] In this model, we tested the hypothesis that PARPi interact with platinum formation. […] The formation of adducts correlated with the number of lymphocytes (P < 0.0001) and the gBRCA mutation status (P < 0.0001). […]
b). Technical aspects of the ICP-MS method development.
PBMCs were extracted from whole blood using by centrifugation. Lysis of red blood cells was performed as needed, then PMBCs were washed and resuspended in A limited number of 5-15 mL heparinised or EDTA whole blood samples from the PK study talazoparib/carboplatin phase 1 study were included. Following centrifugation for 15 min at 1,000 g, plasma was extracted and the PBS was added to a total volume of 9.5 ml to the remaing fraction. PMBCS were extracted using density-gradient centrifugation with Ficoll-Paque Plus® (Pharmacia, Uppsala, Sweden) at room temperature for 20 min at 400 g. PBMCs were washed twice with ice-cold PBS and centrifuged at 800 G for 5 minustes at 4 °C. Cells were counted and ther resuspended in 1 mL buffer containing 10 mmol L−1 Tris- HCl, 2.3% (w/v) NaCl, and 2 mmol L−1 EDTA disodium salt at pH 7.3.
DNA extraction procedure:
The DNA extraction was based on previous publications. 4 In short, 44 μL 1 mol L −1 NH4HCO3, 20 μL 20% (w/v) SDS, and 6 μL 1% (w/v) proteinase K solution were added successively, and incubated for 24hours using a thermomixer. After the digestion was complete, 146 μL saturated 6 mol L−1 NaCl was added to each tube and the tubes were shaken vigorously to precipitate proteins. The tubes were centrifuged for 10min at 2000 g and the supernatant containing the DNA was transferred to another tube. Subsequently, the supernatant was shaken, centrifuged, and transferred to another tube. Following this, 1.5ml absolute ethanol was added to precipitate the DNA and centrifuged from 30 minutes at 21 Kg at 4°C. The DNA was washed twice with 75% ethanol and was subsequently dissolved in 30 μL water. DNA concentrations were analyzed by measuring the absorbance at 260 nm using Nanodrop 1000 spectophotometer (NanoDrop).
Carboplatin adduct quantification:
The quantity of the carboplatin-adducts per mg DNA was quantified (Figure S8) using a previously validated […]
Figure S8: Example graph of mass spectrum of platinum in DNA extraction by ICP-MS.
as §8, §2, §3, §4, §5, §6, §7

Data set [3] can be described thus: Carboplatin one-compartment plasma PK model in mice. The class given is in vivo, beige SCID mice. The procedure: The PK of carboplatin in mice was assessed using a one-compartment model with bolus intravenous injection.
e) Supplements of the PK-model development.

Data set [4] can be described thus: Veliparib plasma and tumor PK model (NONMEM) in xenograft mice. The settings on record: for Kp: beige SCID (Fox Chase).
Method: PK-analyses were performed using nonlinear mixed-effects modeling (NONMEM VII Software, ICON Development Solutions, San Antonio, TX, USA), using the first-order conditional estimation with interaction (FOCEI) method. The model-building procedure was guided by the likelihood ratio test, diagnostic plots and internal model validation techniques, including visual predictive checks and bootstrap analysis. The effect of dose, concentration and cell source on TNBC xenograft tissue concentrations was assessed. The variability between animals was assessed using two components: one consistent difference common to all TNBC xenograft tissue samples from left and right mouse tumor and one mouse-specific difference (RRES) to understand the inter-individual and intra-individual variability.
Intra-animal error tumor 28% 21% 19%
proportional residual error plasma 13% 42% 8%
proportional residual error tumor 23% 19% 7%
proportional residual error plasma 41% 22% 9%
The subject of data set [5] is MDA-MB-436. The settings on record: MDA-MB-436, BRCA1-mutated; ref [23], [25]; cited from earlier work.
Data set [6] relates to PARP. The settings on record: read-out: PARP trapping IC50; cited from earlier work.

For orientation: Vd means the apparent volume that relates the amount in the body to the concentration in plasma or blood. Lower therefore signals little distribution into tissue. Regarding `N.N.O=C([O-])C1(C(=O)[O-])CCC1.[Pt+2]` [carboplatin], in data set [1], the “Half-life carboplatin in plasma” value came to 2.1 h, the Q is 0.324 L/h, the Q2 was 16.7 L/h and the V1 turned out to be 0.935 L. In data set [1], this molecule came in with a V2 of 52.8 L. The same molecule yielded a CLday15 in data set [1] (day 15) of 5.33 L/h. For the same molecule, in data set [1] (single agent day 1), the CLday1 is given as 5.2 L/h. The “RPT, ratio of adducts compared to plasma concentration” value in data set [2] (19 patients) is recorded as 0.5%. Besides, the “Median conc. (RSE %), carboplatin adducts” value in data set [2] (PBMCs from patients, ICP-MS) is given as 0.0552 (30%) μmol/g DNA. In data set [2] (five gBRCA carriers), the “Ratio of adducts in PBMCs/plasma concentration” value came to 0.64%. Further, the “Ratio of adducts in PBMCs/plasma concentration” value in data set [2] (nine non-carriers) is 0.29%. In data set [2] (non-carriers, Supplementary Table 2), the “RPT (%) carboplatin adducts, model estimate” value is recorded as 1.20%. For the same molecule, in data set [2] (patient PBMC samples), the Median platinum adducts is given as 55.2 nmol/g DNA and the “Time platinum adducts remain detectable post dose” value is given as “up to 15 days”. Besides, the “Median platinum adducts, equivalent per blood volume” value in data set [2] (patient PBMC samples, per L blood) is 81.4 pg/L. Further, the “Inter-individual variability on platinum adduct formation (RPT)” value in data set [2] (patients) came out at 317%. In addition, in data set [2] (patients PBMCs), the “Adduct formation, single-agent treatment at day 1 versus combination with talazoparib” value is listed as “no statistical difference” and the “KPT, formation rate of adducts from plasma” value is 0.0156 L/h. Moreover, the “Clearance and volume of distribution of carboplatin with co-dosed veliparib (drug-drug interaction)” value in data set [3] (0, 20 or 60 mg/kg veliparib doses) is given as “not significantly different”. In data set [3] (beige SCID mice plasma), the “Half-life (t1/2)” value is 21 min. In data set [3] (mice plasma), the CL stood at 34.2 mL/h, the “Interindividual variability on CL” value turned out to be 6% and the Vd was found to be 17.5 mL.
One may read the Kp as tissue or fluid exposure divided by exposure in the circulation. A word on the Km: it is the concentration of substrate that gives half-maximal velocity. As a reminder, the IC50 is the concentration that inhibits the measured activity by half. Regarding `C[C@]1(c2nc3c(C(N)=O)cccc3[nH]2)CCCN1` [veliparib], the Kp in data set [4] (mouse, tumor (HCC70 xenograft), oral, Penetration from plasma to xenograft tumor (ratio, RPT), HCC70 xenografts) stood at 0.75. In addition, the partition ratio (Kp) in data set [4] (mouse, tumor (MDA-MB-231 xenograft), oral, Penetration from plasma to xenograft tumor (ratio, RPT), MDA-MB-231 xenografts) was 0.36. Moreover, in data set [4] (mouse, tumor (MDA-MB-436 xenograft), oral, Penetration from plasma to xenograft tumor (ratio, RPT), MDA-MB-436 xenografts), the Kp was 0.46. In data set [4] (mouse, tumor (TNBC xenografts), oral, Veliparib transferred from plasma to TNBC xenografts, across the three xenograft types), this molecule came in with a Kp of 0.35 to 0.74. Moreover, the Michaelis constant (Km) in data set [4] (beige SCID, mouse, plasma, oral) turned out to be 26.2 µg/mL. In data set [4] (mouse PK model), the “Interindividual variability on F plasma” value is 13%, the “Interindividual variability on tumor penetration (between tumors in different animals)” value was 37%, the “Intra-animal variability tumor (within the tumor sections of an animal)” value came to 28% and the Q tumor worked out at 0.0694 mL/h. In addition, in data set [4] (mouse plasma PK model), the V is listed as 10.1 mL, the V2 was 0.0168 mL and the Vmax stood at 1.86 mL/h. Further, in data set [4] (mouse plasma PK model, oral gavage), the KA is 2.11 h⁻¹. Besides, in data set [4] (mouse tumor PK model), the “KPT, rate of transfer from plasma to tumor” value came out at 900 mL/h. Also, the Sensitivity in vitro result in data set [5] was “sensitivity”. Also, in data set [6], the IC50 is 57.4 µM.
